The results in this text go back to BindingDB's records for doi:10.1021/jm8000949 (China Pharmaceutical University, 2008).

In the test the target is T1, Glycogen phosphorylase, muscle form (Oryctolagus cuniculus, UniProt P00489).
T1 sequence (P00489 whole entry): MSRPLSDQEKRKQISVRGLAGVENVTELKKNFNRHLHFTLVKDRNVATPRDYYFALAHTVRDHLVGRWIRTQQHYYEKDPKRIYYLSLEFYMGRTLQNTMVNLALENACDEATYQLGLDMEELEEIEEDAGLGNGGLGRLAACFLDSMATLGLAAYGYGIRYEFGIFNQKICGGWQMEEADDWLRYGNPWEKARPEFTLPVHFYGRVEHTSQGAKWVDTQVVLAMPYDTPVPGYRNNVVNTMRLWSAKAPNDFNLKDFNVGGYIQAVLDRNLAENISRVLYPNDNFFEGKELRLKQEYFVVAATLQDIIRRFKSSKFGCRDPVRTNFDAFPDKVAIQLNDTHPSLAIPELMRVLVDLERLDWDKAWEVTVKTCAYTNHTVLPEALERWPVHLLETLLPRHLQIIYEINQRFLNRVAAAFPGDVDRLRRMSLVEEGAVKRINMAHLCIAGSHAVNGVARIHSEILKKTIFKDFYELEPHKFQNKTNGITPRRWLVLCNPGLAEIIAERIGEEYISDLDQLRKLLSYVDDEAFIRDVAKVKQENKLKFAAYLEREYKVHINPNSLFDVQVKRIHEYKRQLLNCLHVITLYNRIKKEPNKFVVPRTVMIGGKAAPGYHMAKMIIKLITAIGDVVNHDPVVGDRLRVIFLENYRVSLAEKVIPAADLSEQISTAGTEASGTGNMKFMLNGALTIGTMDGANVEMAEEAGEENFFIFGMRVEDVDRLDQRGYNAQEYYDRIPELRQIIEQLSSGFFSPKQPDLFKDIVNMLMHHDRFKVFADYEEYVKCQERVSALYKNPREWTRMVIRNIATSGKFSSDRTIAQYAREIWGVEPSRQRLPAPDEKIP
The experiment in a line: Enzyme Inhibition Assay. Particulars: pH 7.2; 22 °C. The method, then:
The activity of the compounds is determined by measuring the inhibitory effect of the compounds in the direction of glycogen synthesis, the conversion of glucose-1-phosphate into glycogen with the release of inorganic phosphate, which was monitored using microplate reader (BIO-RAD). […] The IC50 values were estimated by fitting the inhibition data to a dose dependent curve using a logistic derivative equation.

As usually defined, the IC50 is the concentration at which inhibition is half-maximal. The compound `C[C@H]1[C@H](C)CC[C@]2(C(=O)O)CC[C@]3(C)C(=CC[C@@H]4[C@@]5(C)CC[C@@H](O)C(C)(C)C5CC[C@]43C)[C@H]12` (stereo partly drawn) [(1S,2R,4aS,6aS,6bR,10R,12aR,12bR,14bS)-10-hydroxy-1,2,6a,6b,9,9,12a-heptamethyl-1,2,3,4,4a,5,6,6a,6b,7,8,8a,9,10,11,12,12a,12b,13,14b-icosahydropicene-4a-carboxylic acid] came in with an IC50 of 19 µM. Under `CC1(C)C2CC[C@]3(C)[C@H](C(=O)C=C4[C@@H]5C[C@@](C)(C(=O)O)CC[C@]5(C)CC[C@]43C)[C@@]2(C)CC[C@@H]1O` (stereo partly drawn) [(2S,4aS,6aS,6bR,10S,12aS,12bR,14bR)-10-hydroxy-2,4a,6a,6b,9,9,12a-heptamethyl-13-oxo-1,2,3,4,4a,5,6,6a,6b,7,8,8a,9,10,11,12,12a,12b,13,14b-icosahydropicene-2-carboxylic acid] stands 66 µM; under `CC1(C)CC[C@]2(C(=O)O)CC[C@]3(C)C(=CC[C@@H]4[C@@]5(C)CCC(=O)C(C)(C)C5CC[C@]43C)[C@@H]2C1` (stereo not given in full) [pentacyclic triterpene compound 6], 18 µM. The figure for `CC1(C)C2CC[C@]3(C)[C@H](CC=C4[C@@H]5C[C@@](C)(C(=O)O)CC[C@]5(C)CC[C@]43C)[C@@]2(C)CC[C@@H]1O` (stereo partly drawn) [(2S,4aS,6aS,6bR,10S,12aR,12bR,14bR)-10-hydroxy-2,4a,6a,6b,9,9,12a-heptamethyl-1,2,3,4,4a,5,6,6a,6b,7,8,8a,9,10,11,12,12a,12b,13,14b-icosahydropicene-2-carboxylic acid] is 82 µM; for `C[C@H]1[C@H](C)CC[C@]2(C(=O)O)CC[C@]3(C)C(=CC[C@@H]4[C@@]5(C)CC[C@H](O)C(C)(C)C5CC[C@]43C)[C@H]12` (stereo partly drawn) [(1S,2R,4aS,6aS,6bR,10S,12aR,12bR,14bS)-10-hydroxy-1,2,6a,6b,9,9,12a-heptamethyl-1,2,3,4,4a,5,6,6a,6b,7,8,8a,9,10,11,12,12a,12b,13,14b-icosahydropicene-4a-carboxylic acid] it is 9 µM; for `C[C@H]1[C@H](C)CC[C@]2(C(=O)O)CC[C@]3(C)C(=CC[C@@H]4[C@@]5(C)CCC(=O)C(C)(C)C5CC[C@]43C)[C@H]12` (stereo partly drawn) [(1S,2R,4aS,6aS,6bR,12aR,12bR,14bS)-1,2,6a,6b,9,9,12a-heptamethyl-10-oxo-1,2,3,4,4a,5,6,6a,6b,7,8,8a,9,10,11,12,12a,12b,13,14b-icosahydropicene-4a-carboxylic acid] it is 57 µM. `CC1(C)CC[C@]2(C(=O)O[C@@H]3O[C@H](CO)[C@@H](O)[C@H](O)[C@H]3O)CC[C@]3(C)C(=CC[C@@H]4[C@@]5(C)CC[C@H](O)C(C)(C)C5CC[C@]43C)[C@@H]2C1` (stereo partly drawn) [(2S,3R,4S,5S,6R)-3,4,5-trihydroxy-6-(hydroxymethyl)oxan-2-yl (4aS,6aS,6bR,10S,12aR,12bR,14bS)-10-hydroxy-2,2,6a,6b,9,9,12a-heptamethyl-1,2,3,4,4a,5,6,6a,6b,7,8,8a,9,10,11,12,12a,12b,13,14b-icosahydropicene-4a-carboxylate] yielded an IC50 of 293 µM. This IC50 lies about 5.1-fold higher than the previous one. Under `C[C@H]1[C@H](C)CC[C@]2(C(=O)O[C@@H]3O[C@H](CO)[C@@H](O)[C@H](O)[C@H]3O)CC[C@]3(C)C(=CC[C@@H]4[C@@]5(C)C[C@@H](O)[C@H](O)C(C)(C)C5CC[C@]43C)[C@H]12` (stereo partly drawn) [(2S,3R,4S,5S,6R)-3,4,5-trihydroxy-6-(hydroxymethyl)oxan-2-yl (1S,2R,4aS,6aS,6bR,10R,11R,12aR,12bR,14bS)-10,11-dihydroxy-1,2,6a,6b,9,9,12a-heptamethyl-1,2,3,4,4a,5,6,6a,6b,7,8,8a,9,10,11,12,12a,12b,13,14b-icosahydropicene-4a-carboxylate] stands 106 µM; under `C[C@H]1[C@H](C)CC[C@]2(C(=O)O[C@@H]3O[C@H](CO)[C@@H](O)[C@H](O)[C@H]3O)CC[C@]3(C)C(=CC[C@@H]4[C@@]5(C)CC[C@H](O)C(C)(C)C5CC[C@]43C)[C@H]12` (stereo not given in full) [pentacyclic triterpene compound 19], 97 µM; under `CC1(C)C2CC[C@]3(C)[C@H](C(=O)C=C4[C@@H]5C[C@@](C)(C(=O)O)CC[C@]5(C)CC[C@]43C)[C@@]2(C)CC[C@@H]1O[C@H]1O[C@H](C(=O)O)[C@@H](O)[C@H](O)[C@H]1O[C@@H]1O[C@H](C(=O)O)[C@@H](O)[C@H](O)[C@H]1O` (stereo not given in full) [pentacyclic triterpene compound 7], 822 µM.
